According to patent US12583851B2, “Heteroaryl-substituted pyrazine derivatives as pesticides” (Elanco Animal Health GmbH, priority 2019, dated 2026):

How the values were obtained:
Assay type in all cases: in vivo
[1] = system: Rhipicephalus (Boophilus) microplus larvae (strain Parkhurst, resistant against synthetic pyrethroids); test: Rhipicephalus (Boophilus) microplus in-vitro contact test, larval cattle tick; details: after 48 hours, read-out: efficacy (larvae dead or moribund); for pest or weed control at 5 µg/cm2, 500 g/ha: 5 μg/cm^2 (=500 g/ha); for pest or weed control at 1 µg/cm2, 100 g/ha: 1 μg/cm^2 (=100 g/ha)
Summary of the method: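 Pyrethroid-resistant larvae (strain Parkhurst), 20–50 per tube, exposed by contact to a dried acetone film of compound (5 μg/cm² at 900 ppm) for 48 h at 27 °C and 85% humidity. Percent dead or moribund larvae scored from negative geotactic behaviour.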

[2] = system: adult brown dog ticks (Rhipicephalus sanguineus); test: Rhipicephalus sanguineus in-vitro contact test, adult brown dog ticks; details: 48 h, 5 μg/cm^2 (=500 g/ha), after 48 hours, read-out: efficacy (ticks dead or moribund)
Summary of the method: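 Acetone solution coated on glass tube inner walls (900 ppm, giving 5 μg/cm^2); after drying, 5–10 adult ticks added and kept 48 h at room temperature. Efficacy scored as percent dead or moribund, i.e., ticks unable to climb away on a 45–50 °C heating plate within 5 min.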

[3] = system: southern root-knot nematode (Meloidogyne incognita); test: Meloidogyne incognita test; details: 20 ppm, after 14 days
Experimental: Meloidogyne incognita—Test
Solvent: 125.0 parts by weight of acetone
(§1) To produce a suitable preparation of active compound, 1 part by weight of active compound is mixed with the stated amount of solvent, and the concentrate is diluted with water to the desired concentration.
Vessels are filled with sand, a solution of the active ingredient, a suspension containing eggs and larvae of the southern root-knot nematode (Meloidogyne incognita) and salad seeds. The salad seeds germinate and the seedlings grow. Galls develop in the roots.
After 14 days the nematicidal activity is determined based on the percentage of gall formation. 100% means no galls were found and 0% means the number of galls found on the roots of the treated plants was equal to that in untreated control plants.

[4] = system: larvae of the banded cucumber beetle (Diabrotica balteata); test: Diabrotica balteata spray test; details: 168 h, after 7 days, read-out: efficacy (seedling growth); for pest or weed control at 32 µg/disc, 100 g/ha: 100 g/ha (=32 μg/well); for pest or weed control at 6.4 µg/disc, 20 g/ha: 20 g/ha (=6.4 μg/well)
Summary of the method: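 Efficacy was read 7 days after infesting each unit with 10–20 banded cucumber beetle larvae, as % of seedlings growing like untreated, uninfested controls. Before infestation, wheat seeds germinated 1 day on agar (5 per well) were sprayed with the active ingredient. The active was formulated in acetone/DMF and diluted in water containing emulsifier.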

[5] = system: adult cat fleas (Ctenocephalides felis); test: Ctenocephalides felis in-vitro contact test, adult cat flea; details: after 48 hours, read-out: efficacy (fleas dead or moribund); for pest or weed control at 1 µg/cm2, 100 g/ha: 1 μg/cm^2 (=100 g/ha); for pest or weed control at 5 µg/cm2, 500 g/ha: 5 μg/cm^2 (=500 g/ha)
Summary of the method: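 Acetone solution coated onto glass tube walls; 900 ppm gives 5 μg/cm². Once dry, 5–10 adult fleas per tube held at room temperature for 48 h. Efficacy (%) is the share of fleas dead or moribund, i.e. unable to climb away on a 45–50° C heating plate.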

[6] = system: green peach aphid (Myzus persicae); test: Myzus persicae oral test; details: 120 h, 4 ppm, after 5 days
Experimental: Solvent: 100 parts by weight acetone
as §1
50 μL compound solution is filled in microtiter plates and 150 μL IPL41 insect medium (33%+15% sugar) is added to obtain a total volume of 200 μL per well. Afterwards the plates are sealed with parafilm through which a mixed population of the green peach aphid (Myzus persicae) can suck on the compound preparation.
(§2) After 5 days mortality in % is determined. 100% means all aphids have been killed and 0% means none of the aphids have been killed.

[7] = system: adult engorged female ticks (Rhipicephalus microplus); test: Rhipicephalus (Boophilus) microplus injection test; details: 168 h, 4 μg/animal, egg deposition after 7 days, read-out: efficacy (infertile eggs)
Experimental: Rhipicephalus (Boophilus) microplus—Injection Test
(§3) Solvent: dimethyl sulfoxide
To produce a suitable preparation of active compound, 10 mg of active compound are dissolved in 0.5 mL solvent, and the concentrate is diluted with solvent to the desired concentration.
Five adult engorged female ticks (Rhipicephalus microplus) are injected with 1 μL compound solution into the abdomen. The ticks are transferred into replica plates and incubated in a climate chamber.
After 7 days egg deposition of fertile eggs is monitored. Eggs where fertility is not visible are stored in a climate chamber till hatching after about 42 days. An efficacy of 100% means all eggs are infertile; 0% means all eggs are fertile.

[8] = system: fall armyworm larvae (Spodoptera frugiperda); test: Spodoptera frugiperda spray test; details: 168 h, maize leaf sections, after 7 days
Summary of the method: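 Percent larval kill read at day 7, from 0% (no caterpillars dead) to 100% (all dead). Larvae were placed on dried Zea mays leaf discs previously sprayed with test preparations made from an acetone/DMF solution diluted in 1000 ppm emulsifier-containing water.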

[9] = system: green peach aphid (Myzus persicae); test: Myzus persicae spray test; details: foliar, 120 h, Chinese cabbage leaf disks, after 5 days
Experimental: Myzus persicae—Spray Test
Solvent: 78.0 parts by weight acetone • 1.5 parts by weight dimethylformamide
(§4) Emulsifier: alkylarylpolyglycol ether
(§5) To produce a suitable preparation of active compound, 1 part by weight of active compound is mixed with the stated amount of solvents and is diluted with water, containing an emulsifier concentration of 1000 ppm, to the desired concentration. Further test concentrations are prepared by dilution with emulsifier containing water.
Chinese cabbage (Brassica pekinensis) leaf disks infected with all instars of the green peach aphid (Myzus persicae), are sprayed with a preparation of the active ingredient of the desired concentration.
as §2

[10] = system: brown planthopper (Nilaparvata lugens); test: Nilaparvata lugens spray test; details: 96 h, 500 g/ha, rice plants, after 4 days
Experimental: Nilaparvata lugens—Spray Test
(§6) Solvent: 78.0 parts by weight of acetone • • 1.5 parts by weight of dimethylformamide
as §4, §5
Rice plants (Oryza sativa) are sprayed with a preparation of the active ingredient of the desired concentration and the plants are infested with the brown planthopper (Nilaparvata lugens).
After 4 days mortality in % is determined. 100% means all planthoppers have been killed and 0% means none of the planthoppers have been killed.

[11] = system: adult mosquitoes Aedes aegypti strain MONHEIM; test: Aedes aegypti test (AEDSAE surface treatment & contact assay); details: 24 hours after contact, read-out: mortality (efficacy); for mortality at 20 mg/m2: surface concentration 20 mg/m^2, 30 minutes exposure
Experimental: Aedes aegypti Test (AEDSAE Surface Treatment & Contact Assay)
(§7) Solvent: Aceton+2000 ppm rapeseed oil methyl ester (RME)
(§8) In order to produce a sufficient, active ingredient containing solution it is necessary to solve the test compound in the solvent-mix (acetone at 2 mg/ml/RME 2000 ppm). This solution is pipetted onto a glazed tile and after evaporation of the acetone, adult mosquitoes of the species Aedes aegypti strain MONHEIM are placed onto the dried surface. The exposure time is 30 minutes.
(§9) Mortality in percent (%) is determined 24 hours after contact of the insects to the treated surface. 100% mortality means that all tested insects are dead, whereas 0% means that no insect died.

[12] = system: adult mosquitoes Anopheles funestus strain FUMOZ-R; test: Anopheles funestus test (ANPHFU surface treatment & contact assay); details: 24 hours after contact, read-out: mortality (efficacy); for mortality at 20 mg/m2: surface concentration 20 mg/m^2, 30 minutes exposure
Experimental: Anopheles funestus Test (ANPHFU Surface Treatment & Contact Assay)
as §7
as §8, with “Anopheles funestus” for “Aedes aegypti”, “FUMOZ-R (Hunt et al., Med. Vet. Entomol. 2005 Sep. 19(3): 271-275)” for “MONHEIM”
as §9

[13] = system: adult flies Musca domestica strain WHO-N; test: Musca domestica test (MUSCDO surface treatment & contact assay); details: surface concentration 20 mg/m^2, 30 minutes exposure, 24 hours after contact, read-out: mortality (efficacy)
Experimental: Musca domestica Test (MUSCDO Surface Treatment & Contact Assay)
as §7
as §8, with “flies” for “mosquitoes”, “Musca domestica” for “Aedes aegypti”, “WHO-N” for “MONHEIM”
as §9

[14] = system: adult unfed cat fleas (Ctenocephalides felis); test: Ctenocephalides felis oral test; details: 48 h, 100 ppm in citrated cattle blood, after 2 days
Experimental: Ctenocephalides felis—Oral Test
as §3
To produce a suitable preparation of active compound, 10 mg of active compound are dissolved in 0.5 mL solvent, and the concentrate is diluted with citrated cattle blood to the desired concentration.
Approximately 20 adult unfed cat fleas (Ctenocephalides felis) are placed in a flea chamber whose top and bottom is covered with gauze. A chamber whose bottom is sealed with parafilm, is filled with the blood-compound solution and placed on top of the flea chamber, so that the fleas can suck the blood. The blood chamber is heated to 37° C. whereas the flea chamber is kept at room temperature.
After 2 days mortality in % is determined. 100% means all the fleas have been killed; 0% means none of the fleas have been killed.

[15] = system: larvae of the southern green stink bug (Nezara viridula); test: Nezara viridula spray test; details: 96 h, 100 g/ha, barley plants, after 4 days
Experimental: Nezara viridula—Spray Test
as §6, §4
as §5, with “solvent,” for “solvents”, “and the concentrate” for “and”
Barley plants (Hordeum vulgare) infested with larvae of the southern green stink bug (Nezara viridula) are sprayed with a test solution containing the desired concentration of the active ingredient.
After 4 days mortality in % is determined. 100% means all the stink bugs have been killed; 0% means none of the stink bugs have been killed.

[16] = surface concentration 4 mg/m^2, 30 minutes exposure

| SMILES | pest or weed control at 5 µg/cm2, 500 g/ha [1] [%] | pest or weed control at 5 µg/cm2, 500 g/ha [2] [%] | nematicidal activity (based on gall formation) [3] [%] | pest or weed control at 32 µg/disc, 100 g/ha [4] [%] | pest or weed control at 1 µg/cm2, 100 g/ha [1] [%] | pest or weed control at 1 µg/cm2, 100 g/ha [5] [%] | pest or weed control at 5 µg/cm2, 500 g/ha [5] [%] | mortality at 4 ppm [6] [%] | pest or weed control at 0.004 mg [7] [%] | pest or weed control at 6.4 µg/disc, 20 g/ha [4] [%] | mortality at 100 g/ha [8] [%] | mortality at 100 g/ha [9] [%] | mortality at 500 g/ha [10] [%] | mortality at 20 mg/m2 [11] [%] | mortality at 20 mg/m2 [12] [%] | mortality at 20 mg/m2 [13] [%] | mortality at 100 ppm [14] [%] | mortality at 100 g/ha [15] [%] | mortality at 4 mg/m2 [11, 16] [%] | mortality at 4 mg/m2 [12, 16] [%] |
| --- | --- | --- | --- | --- | --- | --- | --- | --- | --- | --- | --- | --- | --- | --- | --- | --- | --- | --- | --- | --- |
| CC(NC(=O)c1cc(Cl)cc(Br)c1)c1nccnc1-c1nccs1 (racemic) [Example I-54, (rac)-3-Bromo-5-chloro-N-{1-[3-(1,3-thiazol-2-yl)pyrazin-2-yl]ethyl}benzamide] | 90 | 80 | 90 | 100 |  |  |  |  |  |  |  |  |  |  |  |  |  |  |  |  |
| CC(NC(=O)c1cc(C(F)(F)F)cc(C(F)(F)F)c1)c1nccnc1-c1ccc(C(=O)N2CCOCC2)cn1 (racemic) [Example I-34, (rac)-N-[1-{3-[5-(morpholine-4-carbonyl)pyridin-2-yl]pyrazin-2-yl}ethyl]-3,5-bis(trifluoromethyl)benzamide] | 100 | 80 |  | 80 | 100 | 80 | 90 | 100 |  |  |  |  |  |  |  |  |  |  |  |  |
| CC(NC(=O)c1cc(C(F)(F)F)cc(C(F)(F)F)c1)c1nccnc1-c1ccc(Cl)cn1 (centres unmarked) [Example I-20] | 100 |  |  | 100 | 100 |  |  | 90 | 80 | 80 | 100 |  |  |  |  |  |  |  |  |  |
| CCN(C)C(=O)c1cnc(-c2nccnc2[C@H](C)NC(=O)c2cc(C(F)(F)F)cc(C(F)(F)F)c2)s1 [Example I-85, 2-(3-{(1S)-1-[3,5-bis(trifluoromethyl)benzamido]ethyl}pyrazin-2-yl)-N-ethyl-N-methyl-1,3-thiazole-5-carboxamide] | 100 | 100 |  | 100 | 100 | 100 | 100 |  |  | 100 | 100 | 90 | 100 | 80 to 100 | 80 to 100 | 80 to 100 |  |  |  |  |
| CC(NC(=O)c1cc(C(F)(F)F)cc(C(F)(F)F)c1)c1nccnc1-c1ncc(C(=O)N(CC2CC2)C(C)C)s1 (racemic) [Example I-63, (rac)-2-(3-{1-[3,5-Bis(trifluoromethyl)benzamido]ethyl}pyrazin-2-yl)-N-(cyclopropylmethyl)-N-(propan-2-yl)-1,3-thiazole-5-carboxamide] |  |  | 90 | 100 |  |  |  |  | 100 | 100 | 100 |  |  |  |  |  |  |  |  |  |
| CC(NC(=O)c1cc(Br)cc(C#N)c1)c1nccnc1-c1nccs1 (racemic) [Example I-55, (rac)-3-Bromo-5-cyano-N-{1-[3-(1,3-thiazol-2-yl)pyrazin-2-yl]ethyl}benzamide] |  |  | 100 |  |  |  |  |  |  |  |  |  |  |  |  |  | 100 |  |  |  |
| CC(NC(=O)c1cncc(C(F)(F)F)c1)c1nccnc1-c1ncccn1 (racemic) [Example I-9, (rac)-N-(1-(3-(Pyrimidin-2-yl)pyrazin-2-yl)ethyl)-5-(trifluoromethyl)nicotinamide] | 100 | 80 |  |  | 100 |  |  |  | 100 |  |  |  |  | 80 to 100 | 80 to 100 |  | 80 | 90 | 80 to 100 | 80 to 100 |
| CC(NC(=O)c1cc(Br)cc(OC(F)(F)F)c1)c1nccnc1-c1ccccn1 (centres unmarked) [Example I-17] | 90 |  | 90 | 100 | 80 |  |  |  | 100 | 100 | 83 |  |  |  |  |  | 100 |  |  |  |
